Laboratory results taken from patent US8273769B2, “Phenoxy acetic acid derivatives” (Merck Serono SA, priority 2009, dated 2012).

Tests used:
[1] = tested on: eosinophils in human whole blood; experiment: PGD2-induced eosinophil cell shape assay in human whole blood; assay type: cell-based; conditions: 10 nM PGD2 final, flow cytometry
Protocol: The Compounds of Formula (I) were diluted in dimethylsulphoxide so that the total volume of dimethylsulfoxide was kept constant at 2% dimethylsulphoxide (Me2SO). Serial dilutions of 200 μM to 0.09 μM were prepared. Samples of 90 μl of human blood from healthy volunteers (Centre de Transfusion Sanguine de Genève) were pre-incubated in polypropylene Falcon tubes (BD 352063) for 20 minutes in a water bath at 37° C. with 10 μl of diluted compounds. For CRTH2 activation, 100 μl PGD2 (Cayman 12010) at 20 nM was added (10 nM final) to each tube and cells were maintained at 37° C. For negative control cells were treated with PBS. After 10 minutes, cell activation was stopped with 120 μl Formaldehyde 10% (4% final, Fluka 41650) and cells were rested for 10 minutes at room temperature. Fixed cells were transferred into polypropylene tubes and then treated for 1 hour in a water bath at 37° C. with 2 ml of Triton-Surfact-Amps X-100 (Pierce 28314) at 0.166% (0.13% Triton final). After several washes with PBS (red cells lysed progressively during washes, two washes are necessary), cells were analyzed by flow cytometry on a FACSCalibur. In one embodiment, the compounds of Formula (I) of the present invention are capable of blocking the cell shape change of eosinophils induced by PGD2 in Whole Blood.

CRTH2 [2] = target: T1, CRTH2 (Homo sapiens, UniProt Q9Y5Y4); experiment: Radioligand binding Scintillation Proximity Assay ([3H]PGD2, hCRTH2-CHO cell membranes); set-up: host or cells: CHO cells; conditions: 1.5 nM [3H]PGD2, hCRTH2-CHO cell membranes, SPA
T1 sequence (Q9Y5Y4 1-395): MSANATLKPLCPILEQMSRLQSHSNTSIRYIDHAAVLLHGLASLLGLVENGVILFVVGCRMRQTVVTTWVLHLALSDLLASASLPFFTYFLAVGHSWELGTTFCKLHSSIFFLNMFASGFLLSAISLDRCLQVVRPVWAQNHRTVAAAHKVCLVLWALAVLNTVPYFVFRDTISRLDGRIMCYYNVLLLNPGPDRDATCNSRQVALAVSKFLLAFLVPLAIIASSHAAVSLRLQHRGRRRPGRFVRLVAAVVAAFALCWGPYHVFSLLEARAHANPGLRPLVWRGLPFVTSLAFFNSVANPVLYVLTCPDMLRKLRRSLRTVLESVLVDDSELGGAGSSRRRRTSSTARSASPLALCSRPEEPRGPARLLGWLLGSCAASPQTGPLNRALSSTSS
Procedure, shortened: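 SPA competition binding at room temperature, 90 min with agitation: 1.5 nM [3H]PGD2, 10-50 μg/ml hCRTH2-CHO membrane protein, WGA SPA beads, HEPES pH 7.4 with 10 mM MnCl2, 1% DMSO. Non-specific binding defined with 10 μM PGD2; scintillation counting.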

CRTH2 [3] = target: T1, CRTH2; experiment: [35S]GTPγS binding assay (CHO-CRTH2 cell membranes); assay type: biochemical; set-up: expressed in transfected cells; host or cells: CHO-CRTH2 cells; conditions: antagonist mode, fixed concentration of PGD2 (EC80)
Protocol: Adherent CHO cells expressing hCRTH2 (Euroscreen, Belgium) were cultured in 225 cm^2 cell culture flasks (Corning, USA) in 30 ml of medium. After two rinses of phosphate buffered saline (PBS), cells were harvested in 10 ml of PBS containing 1 mM EDTA, centrifuged at 500×g for 5 min at 4° C. and frozen at −80° C. The pellet was re-suspended in 50 mM Tris-HCl, pH 7.4, 2 mM EDTA, 250 mM Sucrose, containing protease inhibitor cocktail tablets, (Complete EDTA-free, Roche, Germany) and incubated 30 min at 4° C. Cells were disrupted by nitrogen cavitation (Parr Instruments, USA) at 4° C. (800 p.s.i. for 30 min), and centrifuged at 500×g for 10 min at 4° C. Pellet containing nuclei and cellular debris was discarded and supernatant was centrifuged 60 min at 4° C. at 45000×g. Membrane pellet was re-suspended in storage buffer (10 mM HEPES/KOH pH 7.4, 1 mM EDTA, 250 mM sucrose, protease inhibitor cocktail tablets) using Dounce homogenization and frozen in liquid nitrogen, and stored at −80° C.
The [^35S]GTPγS assay measures the increase in guanine nucleotide exchange at G-proteins in cell membranes, resulting from agonist (PGD2) binding to CRTH2. This process can be monitored in vitro by incubating cell membranes containing G-proteins and CRTH2 with GDP and [^35S]GTPγS, a radiolabeled, hydrolysis-resistant analogue of GTP (see, Harrison et al., Life Sciences 74, 489-508, 2003). The addition of a Compounds of Formula (I) results in binding to CRTH2 and thus in an inhibition of agonist binding, which can be monitored as inhibition of the stimulation of GTP/GDP exchange.
Briefly, Compounds of Formula (I) are incubated in 96-well scintillating white polystyrene plates (Perkin Elmer, USA) in a final volume of 200 μl containing 20 mM HEPES/KOH pH 7.4, 3 mM MgCl2, 10 μg/ml Saponin, 5 μM GDP, 75 mM NaCl and 2% of dimethylsulphoxide (DMSO). Reaction is triggered by the addition of 5-10 μg of CHO-CRTH2 cell membranes and 0.15 nM [^35S]GTPγS. After 60 min incubation at 30° C., reaction is stopped by centrifugation at 700×g, at 4° C. for 10 minutes and supernatant is removed. The radioactivity coming from the [^35S]GTPγS bound on centrifuged cell membranes is recorded using a 1450 Micro-beta scintillation counter. For IC50 determination, increasing concentrations of compounds are incubated in presence of a fixed concentration of PGD2 (EC80). For EC50 measurements, compounds are incubated without addition of PGD2. Basal [^35S]GTPγS activity is determined without addition of any ligands or compounds. 100% [^35S]GTPγS activity is measured by the addition of 1 μM of PGD2.

CRTH2 [4] = target: T1, CRTH2; experiment: Cellular Dielectric Spectroscopy (CHO-CRTH2 cells); assay type: cell-based; set-up: expressed in transfected cells; host or cells: CHO-CRTH2 cells; conditions: for EC50 / Emax: partial agonists, agonist activity without PGD2; for IC50: antagonist mode, fixed concentration of PGD2 (EC80)
Protocol: Cellular Dielectric Spectroscopy (CDS) is a label-free technology based on the measurement of complex impedance changes (delta Z or dZ). Impedance (Z) is related to the ratio of voltage to current as described by Ohm's law (Z=V/I). In order to measure the changes in impedance that occur in response to receptor stimulation, mammalian cells are seeded onto a custom 96-well microliter plate that contains electrodes at the bottom of each well. Key contributors to the impedance measurements are changes in cell-substrate adherence, changes in cell shape and volume, and changes in cell-cell interactions. These factors individually or collectively affect the flow of current, influencing the magnitude and characteristics of the signal measured. G-protein coupled receptors ligand-induced activity can be measured using this technology and specific G protein coupling can be identified. Activities of reference agonist and antagonist molecules of CRTH2 have been measured using this assay and similar results were obtained compared to different functional assays.
CHO-CRTH2 cells are cultured in HAM's F12 (Lonza, Switzerland) supplemented with 10% foetal calf serum (PAA, Australia) and 400 μg/ml Geneticin. 100000 cells/well are seeded in standard 96W Microplates (MDS Analytical Technologies) and incubated at 37° C. in 5% CO2 for 24 hours. Cells are washed twice with 135 μl of cell key buffer (Hank's Balanced Salt Solution 1× (HBSS) (Invitrogen) supplemented with 10 mM HEPES pH 7.4 in presence of 1% DMSO). For EC50 determination. 15 μl of increasing concentration of Compounds of Formula (I) diluted in cell key buffer are added to the cells and agonist activity is then recorded for 25 minutes. […] Results are expressed as the amplitude between the highest and the lowest signal produced (max-min). Basal and maximum activities are measured, respectively in absence or presence of PGD2 (EC80).

[5] = tested on: OVA-induced lung eosinophilia in mice; experiment: OVA-induced lung eosinophilia in mice; assay type: in vivo, BALB/c mice; conditions: BAL fluid, dose 1 mg/kg
Protocol: BALB/c mice (6-8 weeks old) were immunized with ovalbumin (10 μg i.p) on day 0 and 7. In order to elicit a local inflammatory response in the lung, mice were challenged between day's 15-17 with a nebulised solution of ovalbumin (10 μg/ml; De Vilibiss Ultraneb 2000, once daily for 30 min during the 3 days). On each separate day between 15 and 17 each animal received via oral gavage the test compound, at t−1 h and t+7 h with respect to OVA exposure at t=0 h. Eight hours after the final OVA challenge, bronchoalveolar lavage (BAL) was then carried out. Total cell numbers in the BAL fluid samples were measured using a haemocytometer. Cytospin smears of the BAL fluid samples were prepared by centrifugation at 1200 rpm for 2 min at room temperature and stained using a DiffQuik stain system (Dade Behring) for differential cell counts. […]

Structure (SMILES)	IC50 [1] [nM]	IC50 (CRTH2 [2]) [nM]	also measured
Cc1ccc(S(=O)(=O)N(C)C)cc1C#Cc1cc(Cl)ccc1OCC(=O)O [Example 83, [4-chloro-2-({5-[(dimethylamino)sulfonyl]-2-methylphenyl}ethynyl)phenoxy]acetic acid]	77	7	–
CS(=O)(=O)c1ccc(F)c(C#Cc2cc(C#N)ccc2OCC(=O)O)c1 [Example 58, (4-cyano-2-{[2-fluoro-5-(methylsulfonyl)phenyl]ethynyl}phenoxy)acetic acid]	95	14	IC50 (CRTH2 [3]): 34 nM; EC50 (CRTH2 [4]): 6 nM; Emax (CRTH2 [4]): 32%
COC1(C)c2ccc(C#Cc3cc(Cl)ccc3OCC(=O)O)cc2S(=O)(=O)C1(C)C (stereo not shown) [Example 162, {4-chloro-2-[(3-methoxy-2,2,3-trimethyl-1,1-dioxido-2,3-dihydro-1-benzothien-6-yl)ethynyl]phenoxy}acetic acid]	–	29	melting point: 80 to 95 °C
Cc1ccc(S(C)(=O)=O)cc1C#Cc1cc(Cl)ccc1OCC(=O)O [Example 33, (4-chloro-2-{[2-methyl-5-(methylsulfonyl)phenyl]ethynyl}phenoxy)acetic acid]	64	9	–
CCS(=O)(=O)c1ccc(F)c(C#Cc2cc(Cl)ccc2OCC(=O)O)c1 [Example 104, (4-chloro-2-{[5-(ethylsulfonyl)-2-fluorophenyl]ethynyl}phenoxy)acetic acid]	–	3	melting point: 165 to 169 °C
C[C@@H]1C[C@H]2[C@@H]3CCC4=CC(=O)C=C[C@]4(C)[C@@]3(F)[C@@H](O)C[C@]2(C)[C@@]1(O)C(=O)CO [Dexamethasone]	–	–	% inhibition eosinophils (mean ± s.e.m.) [5]: 90 ± 10%; % inhibition total cells (mean ± s.e.m.) [5]: 88 ± 11%
COCCN(C)S(=O)(=O)c1ccc(C)c(C#Cc2cc(Cl)ccc2OCC(=O)O)c1 [Example 109, {4-chloro-2-[(5-{[(2-methoxyethyl)(methyl)amino]sulfonyl}-2-methylphenyl)ethynyl]phenoxy}acetic acid]	77	5	–
CCCc1ccc(S(C)(=O)=O)cc1C#Cc1cc(Cl)ccc1OCC(=O)O [Example 49, (4-chloro-2-{[5-(methylsulfonyl)-2-propylphenyl]ethynyl}phenoxy)acetic acid]	1190	11	–
COCCS(=O)(=O)c1ccc(F)c(C#Cc2cc(Cl)ccc2OCC(=O)O)c1 [Example 106, [4-chloro-2-({2-fluoro-5-[(2-methoxyethyl)sulfonyl]phenyl}ethynyl)phenoxy]acetic acid]	–	2	melting point: 125 to 128 °C
COCCNS(=O)(=O)c1ccc(C)c(C#Cc2cc(Cl)ccc2OCC(=O)O)c1 [Example 117, {4-chloro-2-[(5-{[(2-methoxyethyl)amino]sulfonyl}-2-methylphenyl)ethynyl]phenoxy}acetic acid]	88	5	–
CS(=O)(=O)c1ccc(F)c(C#Cc2cc(Cl)ccc2OCC(=O)O)c1 [Example 48, (4-chloro-2-{[2-fluoro-5-(methylsulfonyl)phenyl]ethynyl}phenoxy)acetic acid]	95	9	IC50 (CRTH2 [3]): 15 nM; IC50 (CRTH2 [4]): 9 nM; EC50 (CRTH2 [4]): 1 nM; Emax (CRTH2 [4]): 12%
O=C(O)COc1ccc(Cl)cc1C#Cc1ccc(CO)cc1F [Example 26, (4-chloro-2-{[2-fluoro-4-(hydroxymethyl)phenyl]ethynyl}phenoxy)acetic acid]	679	28	IC50 (CRTH2 [3]): 140 nM
Cc1ccc(S(=O)(=O)CC(C)C)cc1C#Cc1cc(C#N)ccc1OCC(=O)O [Example 65, (4-cyano-2-{[5-(isobutylsulfonyl)-2-methylphenyl]ethynyl}phenoxy)acetic acid]	123	9	–
CCc1ccc(S(C)(=O)=O)cc1C#Cc1cc(Cl)ccc1OCC(=O)O [Example 100, (4-chloro-2-{[2-ethyl-5-(methylsulfonyl)phenyl]ethynyl}phenoxy)acetic acid]	100	3	IC50 (CRTH2 [4]): 23 nM
